Assay results taken from PMC9369794 (Molecules, 2022).

Assays:
[1] = Kinetic solubility in PBS pH 7.4; assay type: physicochemical; conditions: aqueous buffer, kinetic from dmso stock, kinetic solubility after 2 h, at 37 °C in PBS, nominal 250 μM, read-out: Kin.Sol.
Method: On a 96-well polypropylene plate (Greiner bio-one) 7.5 μL stock solutions were added to 292.5 μL PBS (pH 7.4) to make a solution with the nominal concentration of 250 μM. For each sample 3 replicates were measured. […] After that, each sample was transferred into a filter plate (MSSBLPC, Multiscreen Filter plate, Merck kGaA) and filtered (Vaccum Manifold, Merck kGaA, Darmstadt, Germany). The filtrates were transferred into UV-Star microplates (Greiner bio-one) and acetonitrile (AcN) was added to each well to avoid precipitation. The final solvent ratio was AcN:PBS 70:30. UV-Vis spectra were collected for each replicate by a Multiskan Sky UV-plate reader (Thermo Scientific, Waltham, MA, USA) in a wavelength range of 250–700 nm, with 1 nm steps. After blank substraction, the kinetic solubility of the samples was determined based on absorption at λmax using a 5-point calibration curve for each sample recorded in 70:30 AcN:PBS solvent.
Limit of detection (LOD) and limit of quantification (LOQ) were calculated with Equations (1) and (2) respectively, based on UV-Vis spectral data:(1) LOD=3.3×σ/s (2) LOQ=10×σ/s where the σ value in the equations stands for the standard deviation of the absorption base line at 700 nm (where no sample-specific absorption was observed). The s value is the slope of the calibration curve recorded for each sample based on their absorption at λmax (Table 4.)

Water dispersibility = assay type: physicochemical; conditions: distilled water, sonication
Method: About 2 mg of the examined substance was dispersed in 40 mL of distilled water and the suspension was sonicated for 2 min. The addition of water was continued with 10 mL portions, after each portion the mixture was sonicated for 2 min. This process was continued till a homogenous solution was observed by naked eye. Then, the solution was let to stand for an hour to inspect any precipitate formation, but no changes occurred in any of the cases.

[2] = FRAP assay for the antioxidant capacity; set-up: key to FRAP: slope of concentration-absorbance line divided by Trolox slope; conditions: for FRAP: stock in THF, acetate buffer pH 3.0, 37 °C, 15 min, ratio of slopes to trolox (melatonin in EtOH)
Procedure, shortened: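 Fe^3+→Fe^2+ reduction by antioxidants (THF stocks) in FRAP reagent (FeCl3/TPTZ, 300 mM acetate buffer pH 3.0), 15 min at 37 °C in the dark. Absorbance at 600 nm measured in triplicate at 0-17.5 μM final. FRAP value = slope of absorbance-concentration line divided by Trolox slope.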

[3] = Study of aggregation by UV-Vis spectrophotometry; assay type: physicochemical; conditions: for change of UV spectrum with increasing ratio of PBS: starting from THF solutions
Procedure, shortened: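 Conjugates dissolved in THF and diluted with THF or THF-PBS mixtures (1:1, 1:3) at identical carotenoid concentration; separately, 2.5∙10−4 M DMSO stocks added to PBS to final 0.3125–5 μM carotenoid. UV-Vis spectra recorded to follow band shifts and fine-structure changes; DMSO-PBS solutions also examined by DLS.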

| solubility kinetic at 2 h [1] | Water Dispersibility (Water dispersibility) | change of UV spectrum with increasing ratio of PBS [3] | Compound | FRAP [2] | type of aggregates formed ([3]; from THF:aqueous solutions) | FRAP value relative to the succinates of the other carotenoids ([2]; acetate buffer pH 3.0) |
| --- | --- | --- | --- | --- | --- | --- |
| 0.6 ± 0.1 µM | 1.3 mg/100 mL | did not cause much change | CC1=C(/C=C/C(C)=C/C=C/C(C)=C/C=C/C=C(C)/C=C/C=C(C)/C=C/C2=C(C)C[C@@H](OC(=O)CCC(=O)O)CC2(C)C)C(C)(C)C[C@H](OC(=O)CCC(=O)O)C1 [Compound 7, Zeaxanthin bissuccinate] | 0.155 | – | – |
| 52.3 ± 2.4 µM | 1.5 mg/100 mL | did not cause much change | CC1=C(/C=C/C(C)=C/C=C/C(C)=C/C=C/C=C(C)/C=C/C=C(\C)COC(=O)CCC(=O)O)C(C)(C)CCC1 [Compound 6, 8′-Apo-β-carotenol succinate] | 0.276 | – | 1.5–2 times |

| Compound | solubility kinetic at 2 h [1] | Water Dispersibility (Water dispersibility) | change of UV spectrum with increasing ratio of PBS [3] | FRAP [2] | type of aggregates formed ([3]; from THF:aqueous solutions) | FRAP value relative to the succinates of the other carotenoids ([2]; acetate buffer pH 3.0) |
| --- | --- | --- | --- | --- | --- | --- |
| CC1=C(/C=C/C(C)=C/C=C/C(C)=C/C=C/C=C(C)/C=C/C=C(C)/C=C/C2=C(C)C[C@@H](OC(=O)CCC(=O)O)CC2(C)C)C(C)(C)CCC1 [Compound 8, β-Cryptoxanthin succinate] | 1.3 ± 0.1 µM | less than 0.5 mg/100 mL | bathochromic shift | 0.181 | J-type (head-to-tail) aggregates | – |
